Patent publication US4191780A, “Bromhexine derivatives and process for making same” (priority 1978, dated 1980)
Entries after “also recorded” stand apart in the source; their conditions may differ.

How the values were obtained:
[1] = system: bronchial secretion; conditions: animal experiments; Engelhorn 1966, Merker 1966, Boyd 1966; cited from earlier work
[2] = system: various types of cough; conditions: animal experiments; Engelhorn 1966, Merker 1966, Boyd 1966; cited from earlier work
[3] = Acute toxicity in rats treated orally; assay type: in vivo; conditions: oral
[4] = Long-term toxicity in rats: urine analysis; assay type: in vivo
Procedure: Urine analysis is carried out on 6 animals per group (3 males and 3 females) before as well as 30 and 60 days after treatment. Control group and the animals receiving 250 mg/kg Bromhexine and 350 mg/kg IFT 1026 respectively are observed.
The amount, aspect, colour, pH value, albumin, glucose, bilirubin levels and ketone bodies are recorded using also Ames reactive stripes.

[5] = system: blood pressure and heart rate; test: Action on blood pressure and heart rate in the anesthetized rat; assay type: in vivo; conditions: intraperitoneal
Procedure: After intraperitoneal administration of increasing doses of IFT 1026, blood pressure, heart rate and the amplitude of heart contractions are unchanged. The effect of IFT 1026 at the dose of 450 mg/kg on blood pressure in the anesthesized rat is exemplified by the graph in FIG. No. 1.
FIG. 1--Arterial pressure recorded in the anaesthetized rat before and after IFT 1026 administration.

[6] = system: amphetamine-induced stereotypies; test: Action on the amphetamine-induced stereotypies and toxicity on mice; conditions: 500 mg/kg/10 ml p.o., 60 min before dl-amphetamine 16 mg/kg/ml i.p.
Procedure: Stereotypies and death are caused 60 min. after treatment with IFT 1026 (500 mg/kg/10 ml p.o.) by injecting dl-amphetamine (16 mg/kg/ml i.p.) to groups of 10 male albino Swiss mice per cage.

[7] = system: Cough elicited by 15% citric acid spray; test: Antitussive effect in Guinea-pigs and mice (overall); assay type: in vivo; conditions: mice (oral) and Guinea-pigs (i.p.)
Procedure: (6) Antitussive effect in Guinea-pigs and mice
The effect was tested 1 hour after oral administration and 30 min. after intraperitoneal application of the antitussive agents on mice and Guinea-pigs respectively.

SMILES	stimulation of bronchial secretion [1]	effects on various types of cough [2]	behaviour / clinical signs ([3]; high doses (up to 3000 mg/kg))	lethal cases ([3]; increasing doses up to 3000 mg/kg, up to the seventh day after treatment)	urine amount, aspect, colour, pH, albumin, glucose, bilirubin, ketone bodies ([4]; 250 mg/kg Bromhexine, 350 mg/kg IFT 1026, 30 and 60 days)	impairment in the kidney ([4]; 350 mg/kg IFT 1026)	amplitude of heart contractions ([5]; increasing doses)	heart rate ([5]; increasing doses)	blood pressure ([5]; rat, increasing doses (450 mg/kg in FIG. 1))	amphetamine-induced death [6]	amphetamine-induced stereotypies [6]	antitussive effect compared in terms of the parent compound (Bromhexine) [7]	antitussive effect compared with Bromhexine [7]
CN(Cc1cc(Br)cc(Br)c1N)C1CCCCC1 [Bromhexine, N-cyclohexyl-N-methyl-2-(2-amino-3,5-dibromo)benzylammonium chloride]	marked stimulation	depressing effects											
COc1ccccc1OCC(=O)Nc1c(Br)cc(Br)cc1CN(C)C1CCCCC1 [IFT 1026, N-(2-guaiacol-glycolyl-amino-3,5-dibromobenzyl)N-cyclohexylmethylamine]			slight depression in behaviour, occasional tremor and stiffness	no lethal cases	no changes occur in said parameters	no impairment in the kidney	unchanged	unchanged	unchanged	not changed	not changed	the same when compared in terms of the parent compound	slightly weaker than Bromhexine; also recorded: approximately the same as that of Bromhexine
